Experimental data reported in patent US8455495B2, “Pyridazino-pyridinone compounds and methods of use” (Amgen Inc., priority 2008, dated 2013).
Like-named read-outs stand apart in the source and are kept apart here.

What was measured:
recombinant human p38α = recombinant human p38α (Homo sapiens, UniProt Q16539); experiment: Purified and activated recombinant human p38α HTRF assay; assay type: biochemical; conditions: 1 nM p38α, 50 μM ATP, GST-ATF2 substrate, read-out: p38a IC50
Method: Purified and Activated Recombinant Human p38α Assay Kinase Reaction Buffer: […] HTRF Detection Buffer: […] Serial Dilution of Compounds: […] Columns 6 and 12 (HI controls and LO controls respectively) in the drug plate were reserved as controls and contained only DMSO. Kinase Reaction: […] See table below for actual concentrations. In the absence of substrate, the background was measured as LO control. […] Assay Reagent Concentrations: […] HTRF Detection: […] After 60 minutes incubation at room temperature, the assay plate was read in a Discovery Plate Reader. The wells were excited with coherent 320 nm light and the ratio of delayed ([…] post excitation) emissions at […] (native europium fluorescence) and 665 nm (europium fluorescence transferred to allophycocyanin-an index of substrate phosphorylation) was determined (Park et al, 1999). Data Analysis: […] Data (consisting of POC and inhibitor concentration in μM) was fitted to a 4-parameter equation ([…]))), where A is the minimum y (POC) value, B is the maximum y (POC), C is the x (compound concentration) at the point of inflection and D is the slope factor, using a Levenburg-Marquardt non-linear regression algorithm. The inhibition constant (Ki) of the inhibitor was estimated from the IC50 (compound concentration at the point of inflection C) using the Cheng-Prussof equation: […] All results were expressed as the mean±the standard error of the mean. Data acquisition and non-linear regression algorithms were performed using Activity Base v5.2 and XL-fit software v4.1 respectively. All data was archived using Activity Base v5.2 software.

[1] = tested on: production of IL-1β, IL-6, and TNF-α by PBMC activated with LPS; experiment: Lipopolysaccharide-activated PBMC cytokine production assay; assay type: cell-based; conditions: Homo sapiens, read-out: IC50 in PBMC cytokine production assay
Method: Lipopolysaccharide-Activated Pbmc Cytokine Production Assay
Test compounds were evaluated in vitro for the ability to inhibit the production of IL-1β, IL-6, and TNF-α by PBMC activated with bacterial lipopolysaccharide (LPS). Fresh leukocytes were obtained from a local blood bank, and peripheral blood mononuclear cells (PBMCs) were isolated by density gradient centrifugation on Ficol-Paque Plus (Pharmacia).
Preparation of Test Compound Stock Solutions
All reagents were prepared in RPMI 1640+10% v/v human AB serum+1× Pens/Strep/Glu (assay medium). Test compounds were dissolved in 100% DMSO and serially diluted in 96-well polypropylene round bottom micro titer plates (drug plate). Serial dilutions were then diluted 1:250 into assay medium to a 4× working concentration. Compound serial dilutions were half-log, 10 point titrations with a final starting concentration of 1 μM.
Treatment of Cells with Test Compounds and Activation with Lipopolysaccharide
LPS was prepared to a 4× concentration in assay medium. 100 μl of PBMC (1×10^6 cells/ml) were plated in a 96-well polystyrene flat bottom micro titer tissue culture plate and incubated with 50 μl of 4× compound serial dilution for 1 hour at 37° C., 5% CO2 in a tissue culture incubator. 50 μl 4×LPS or control was added and the plates were incubated at 37° C., 5% CO2 in a tissue culture incubator for 18 hours. The final DMSO concentration was 0.1%. The total volume was 200 μL. The final LPS concentration was 100 ng/mL. After 18 hours culture supernatants were removed and IL-1β, IL-6, and TNF-α presence in the supernatants was quantified using MSD ECL based technology.
20 μL of culture supernatant were added to MSD plates, and incubated for one hour at room temperature. 20 μL of detection antibody diluted in antibody diluent (1 μg/mL), and 110 μL of 2× Read Buffer P was added, and incubated for one hour at RT. Electrochemiluminescence was measured using the SECTOR HTS Imager (MSD, Gaithersburg, Md.).
Compound IC50 values were calculated as follows: The proportion of cytokine production in the presence of compound compared to the cytokine production in the presence of the DMSO vehicle alone (Hi control) was calculated using the formula: Percent Control (POC)=(compound−average Lo)/(average Hi−average Lo)*100.

[2] = tested on: TNF-α production by LPS-activated THP1 cells; experiment: Lipopolysaccharide-activated THP1 cell TNF production assay; assay type: cell-based; conditions: Homo sapiens, read-out: IC50 in THP-1 cellular TNF production assay
Method: Lipopolysaccharide-Activated THP1 Cell TNF Production Assay
THP1 cells were resuspended in fresh THP1 media (RPMI 1640, 10% heat-inactivated FBS, 1×PGS, 1×NEAA, plus 30 μM βME) at a concentration of 1.5×10^6 cells per mL. One hundred microliters of cells per well were plated in a polystyrene 96-well tissue culture plate. 1.5 micrograms per mL of bacterial LPS was prepared in THP1 media and transferred to the first 11 columns of a 96-well polypropylene plate. Column 12 contained only THP1 media for the LO control. Compounds were dissolved in 100% DMSO and serially diluted 3 fold in a polypropylene 96-well microtiter plate (drug plate). Columns 6 and 12 were reserved as controls (HI controls and LO controls respectively) and contained only DMSO. 10 μL of LPS followed by one microliter of inhibitor compound from the drug plate was transferred to the cell plate. The treated cells were induced to synthesize and secrete TNF-α in a 37° C. humidified incubator with 5% CO2 for 3 hours. Fifty microliters of conditioned media was transferred to a 96-well MULTI-ARRAY™ 96-well small spot plate—custom coated with MAB610 containing 100 μL of 2× Read Buffer P supplemented with 0.34 nM AF210NA polyclonal Ab labeled with ruthenium (MSD—Sulfo-TAG™—NHS ester). After an overnight incubation at room temperature with shaking, the reaction was read on the Sector Imager™ 6000. […] The amount of secreted TNF-α in the presence of test compounds compared with that in the presence of DMSO vehicle alone (HI control) was calculated using the formula: % control (POC)=(cpd−average LO)/(average HI−averageLO)*100. Data (consisting of POC and inhibitor concentration in μM) was fitted to a 4-parameter equation (y=A+((B−A)/(1+((x/C)^D))), where A is the minimum y (POC) value, B is the maximum y (POC), C is the x (cpd concentration) at the point of inflection and D is the slope factor) using a Levenburg-Marquardt non-linear regression algorithm.

[3] = tested on: LPS-induced TNF-α production; experiment: Inhibition of LPS-induced TNF-α production in rats; assay type: in vivo; conditions: Rattus norvegicus, read-out: ED50, inhibition of LPS-induced TNF-α production
Method: Inhibition of LPS-Induced TNF-α Production Rats
LPS was diluted in PBS (100 μg per rat). Rats (n=6) were pretreated with vehicle or compound (0.03, 0.1, 0.3 and 1.0 mg/kg, PO) 60 minutes prior to the injection of LPS (100 μg per rat/IV, tail vein). Blood was harvested via decapitation 90 minutes following the administration of LPS. Blood was centrifuged at 12,000 rpm for 12 minutes to obtain plasma. Plasma samples were stored at −80 C. TNF-α levels were determined by ELISA for treatment groups that received LPS. Rat TNF-α levels were analyzed using rat TNF-α CytoSet kit from Biosource International. ELISA was completed according to the manufacturer's instructions. The concentration of TNF-α was interpolated from absorbance using the standard curve generated. For each individual sample, the TNF value from the dilution series that fell in the most linear portion of the standard curve was chosen and used for data analysis. The limit of quantitation of the ELISA was 1,000 pg/mL.

[4] = tested on: collagen-induced arthritis; experiment: Collagen-induced arthritis (CIA) model in rats; assay type: in vivo; conditions: Rattus norvegicus, 168 h, read-out: ED50 in rat CIA model
Method: Collagen-induced Arthritis (CIA) Model in Rats
Porcine type II collagen (10 mg) was dissolved in 0.1N acetic acid (5 mL) two days prior to use on a rotating plate in the refrigerator. Subsequently, collagen was emulsified 1:1 with Freund's incomplete adjuvant using an emulsification needle and glass syringes yielding a final concentration of 1 mg/mL.
Disease was induced in each animal by intradermal injection of emulsified collagen in IFA at 10 different sites (100 μL per site) over the back. The clinical onset of arthritis varied between days 10 to 12 as indicated by hind paw swelling and ambulatory difficulties. At onset (defined as Day 0), rats were randomized to treatment groups and therapy was initiated with drug or vehicle control as noted in table above. Rats were treated for 7 days and were sacrificed on Day 8.

[5] = tested on: TNF-α induced IL-8 in 50% human whole blood; experiment: Inhibition of TNF-α induced IL-8 in 50% human whole blood; assay type: cell-based; conditions: TNF-α (1 nM) induced IL-8, 50% human whole blood, 16-18 h, read-out: WB TNF/IL8 IC50
Method: Inhibition of TNF-α Induced IL-8 in 50% Human Whole Blood
Test compounds were evaluated in vitro for the ability to inhibit the production of secreted IL-8 by whole blood activated with TNF-α. Fresh human whole blood was obtained from healthy, non-medicated volunteers in sodium heparin tubes.
Compound Dilution—Assay Procedure
Test compounds are serially diluted 1:3 in DMSO and then diluted 1:250 into R10 (RPMI 1640, 10% human serum AB, 1× pen/strep/glutamine) to the 4× working concentration to be used in the assay. 100 ul heparinized whole blood is plated into wells of 96 well flat bottom plates. 50 ul of either 4× compound or DMSO control (Final DMSO concentration is 0.1%) are added to the appropriate wells. Plates are incubated for 1 hour at 37 degrees Celsius. 50 ul of 4×TNF-α (4 nM TNF-α, for a final concentration of 1 nM) or control (media alone) is added to the appropriate wells (Total volume=200 ul). Plates are incubated overnight (16-18 hours). 100 ul of supernatant is collected and stored in 96-well round bottom polypropylene plates at −80 degrees Celsius or assayed immediately for IL-8.
Cytokines are measured on antibody (Ab) sandwich ECL based 96-well detection plates. 20 ul of supernatant are added to plate and plate is sealed and shaken at RT for 1 hour. 130 ul of detection Ab cocktail is added and plates are sealed and shaken for 1 hour in the dark at RT. Plates are read on MSD Sector HTS instrument. Data are analyzed and IC50 values generated using Activity Base and X1-fit programs.

[6] = THP-1, THP1 cells, LPS, 3 hours

recombinant human p38α, sequence (Q16539 whole entry): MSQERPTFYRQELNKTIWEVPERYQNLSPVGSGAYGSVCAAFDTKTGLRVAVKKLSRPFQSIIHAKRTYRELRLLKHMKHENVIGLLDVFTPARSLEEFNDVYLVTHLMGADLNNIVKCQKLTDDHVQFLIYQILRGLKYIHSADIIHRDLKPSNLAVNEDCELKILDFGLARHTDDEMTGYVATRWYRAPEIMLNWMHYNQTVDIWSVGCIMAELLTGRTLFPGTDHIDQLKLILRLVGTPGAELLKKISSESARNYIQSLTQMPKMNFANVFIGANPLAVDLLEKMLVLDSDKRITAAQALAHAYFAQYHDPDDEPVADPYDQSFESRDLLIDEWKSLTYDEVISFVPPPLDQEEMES

IC50 [5] [nM] | IC50 [2, 6] [nM] | SMILES | IC50 (recombinant human p38α) [nM] | IC50 ([1]; 18 h) [nM] | IC50 ([2]; THP-1, 3 h) [nM] | ED50 [3] [mg/kg] | ED50 [4] [mg/kg] | IC50 ([1]; LPS 100 ng/mL, 18 hours) [nM] | ED50 ([3]; rats, compound PO 60 minutes prior to LPS IV, plasma TNF-α 90 minutes after LPS) [mg/kg] | ED50 ([4]; rats, treated for 7 days from onset of arthritis) [mg/kg]
 |  | Cc1c(F)cc(C(=O)NC2CC2)cc1-c1cc2cnnc(-c3ccc(F)cc3F)c2n(C)c1=O [Example 3, N-cyclopropyl-3-(8-(2,4-difluorophenyl)-1-methyl-2-oxo-1,2-dihydropyrido[3,2-d]pyridazin-3-yl)-5-fluoro-4-methylbenzamide] | 1.7 | ≤ 1000 | ≤ 1000 | 0.04 |  |  |  | 
 |  | Cc1ccc(C(=O)NC2CC2)cc1-c1cc2cnnc(-c3ccc(F)cc3F)c2n(C)c1=O [Example 1, N-cyclopropyl-3-(8-(2,4-difluorophenyl)-1-methyl-2-oxo-1,2-dihydropyrido[3,2-d]pyridazin-3-yl)-4-methylbenzamide] | 2.3 | ≤ 1000 | ≤ 1000 | 0.06 | 0.03 |  |  | 
4.1 | ≤ 1000 | Cc1ccc(C(=O)Nc2ccnn2C)cc1-c1cc2cnnc(-c3ccc(F)cc3F)c2n(C)c1=O [Example 15, 3-(8-(2,4-difluorophenyl)-1-methyl-2-oxo-1,2-dihydropyrido[2,3-d]pyridazin-3-yl)-4-methyl-N-(1-methyl-1H-pyrazol-5-yl)benzamide] | 7.5 |  |  |  |  | ≤ 1000 |  | 
 | ≤ 1000 | Cc1c(F)cc(C(=O)NC2CC2)cc1-c1cc2cnnc(-c3ccccc3Cl)c2n(C)c1=O [Example 14, 3-(8-(2-chlorophenyl)-1-methyl-2-oxo-1,2-dihydropyrido[2,3-d]pyridazin-3-yl)-N-cyclopropyl-5-fluoro-4-methylbenzamide] | 2.4 |  |  |  |  | ≤ 1000 | 0.02 | 0.03
